Laboratory results taken from patent publication US8598159B2, “Therapeutic pyrazoloquinoline derivatives” (Dart Neuroscience (Cayman) Ltd., priority 2007, dated 2013).

Molecular target: GABAA central benzodiazepine receptor
Test: Benzodiazepine binding assay ((3H)-flunitrazepam displacement)
Settings: read-out: BZ binding assay (IC50); rat whole brain (except cerebellum), 1 nM (3H)-flunitrazepam, 60 minutes at 25° C.; 3-concentration dose response curve

| IC50 | Compound |
| --- | --- |
| > 1000 nM | Cc1[nH]c2cc(N3CCOCC3)c(F)cc2c2nn(-c3ccccc3)c(=O)c1-2 [63b, 8-Fluoro-4-methyl-7-morpholin-4-yl-2-phenyl-2,5-dihydro-pyrazolo [4,3-c]quinolin-3-one] |
| < 1000 nM | CC(C)N1CCN(c2ccc3c4nn(-c5ccccc5)c(=O)c-4c[nH]c3c2F)CC1 [48e, 6-Fluoro-7-(4-iso-propylpiperazin-1-yl)-2-phenyl-2,5-dihydro-pyrazolo [4,3-c]quinolin-3-one] |
| < 1000 nM | O=c1c2c[nH]c3c(F)c(N4CCOCC4)ccc3c-2nn1-c1ccccc1 [48c, 6-Fluoro-7-(morpholin-4-yl)-2-phenyl-2,5-dihydro-pyrazolo[4,3-c]quinolin-3-one] |
| < 1000 nM | O=c1c2c[nH]c3c(N4CCNCC4)cc(C(F)(F)F)cc3c-2nn1-c1ccccc1 [52a, 2-Phenyl-6-piperazin-1-yl-8-trifluoromethyl-2,5-dihydro-pyrazolo[4,3-c]quinolin-3-one] |
| > 1000 nM | CN1CCN(c2ccc3c4nn(-c5ccccc5)c(=O)c-4c[nH]c3c2F)CC1 [48b, 6-Fluoro-7-(4-methyl-piperazin-1-yl)-2-phenyl-2,5-dihydro-pyrazolo [4,3-c]quinolin-3-one] |
| < 1000 nM | O=c1c2c[nH]c3c(N4CCCNCC4)cc(C(F)(F)F)cc3c-2nn1-c1ccccc1 [52c, 2-Phenyl-6-(perhydro[1,4]-diazepine-1-yl)-8-trifluoromethyl-2,5-dihydro-pyrazolo[4,3-c]quinolin-3-one] |

The remaining lines, values behind:

| Compound | IC50 |
| --- | --- |
| O=c1c2c[nH]c3c(F)c(N4CCNCC4)ccc3c-2nn1-c1ccccc1 [48a, 6-Fluoro-2-phenyl-7-piperazin-1-yl-2,5-dihydro-pyrazolo[4,3-c]quinolin-3-one] | > 1000 nM |
| CC1CN(c2ccc3[nH]cc4c(=O)n(-c5ccccc5)nc-4c3c2)CC(C)O1 (centres unmarked) [19h, 8-(2,6-Dimethylmorpholin-4-yl)-2-phenyl-2,5-dihydro-pyrazolo[4,3-c]quinolin-3-one] | < 1000 nM |
| O=c1c2c[nH]c3cc(N4CCNCC4)c(F)cc3c-2nn1-c1ccccc1 [28a, 8-Fluoro-2-phenyl-7-piperazin-1-yl-2,5-dihydro-pyrazolo[4,3-c]quinolin-3-one] | < 1000 nM |
| CN1CCCN(c2cc3[nH]cc4c(=O)n(-c5ccccc5)nc-4c3cc2F)CC1 [28m, 8-Fluoro-7-(4-methylperhydro[1,4]-diazepin-1-yl)-2-phenyl-2,5-dihydro-pyrazolo[4,3-c]quinolin-3-one] | < 1000 nM |
| CN(C)C1CCN(c2cc3[nH]cc4c(=O)n(-c5ccccc5)nc-4c3cc2F)CC1 [28i, 7-(4-Dimethylaminopiperidin-1-yl)-8-fluoro-2-phenyl-2,5-dihydro-pyrazolo[4,3-c]quinolin-3-one] | < 1000 nM |
| 2-Phenyl-6-(4-iso-propylpiperazin-1-yl)-8-trifluoromethyl-2,5-dihydro-pyrazolo[4,3-c]quinolin-3-one [52d] | < 1000 nM |
| O=c1c2c[nH]c3cc(N4CCN(C5CCCC5)CC4)c(F)cc3c-2nn1-c1ccccc1 [28j, 7-(4-Cyclopentylpiperazin-1-yl)-8-fluoro-2-phenyl-2,5-dihydro-pyrazolo[4,3-c]quinolin-3-one] | < 1000 nM |
| O=c1c2c[nH]c3cc(N4CCCNCC4)c(F)cc3c-2nn1-c1ccccc1 [28l, 8-Fluoro-7-(perhydro[1,4]-diazepin-1-yl)-2-phenyl-2,5-dihydro-pyrazolo[4,3-c]quinolin-3-one] | < 1000 nM |
| O=c1c2c[nH]c3cc(N4CCNCC4)c(F)cc3c-2nn1-c1ccccc1F [28n, 8-Fluoro-2-(2-fluorophenyl)-7-(piperazin-1-yl)-2,5-dihydro-pyrazolo[4,3-c]quinolin-3-one] | > 1000 nM |
| CN1CCN(c2cc3[nH]cc4c(=O)n(-c5ccsc5)nc-4c3cc2F)CC1 [28q, 8-fluoro-7-(4-methylpiperazin-1-yl)-2-(thiophen-3-yl)-2,5-dihydro-pyrazolo[4,3-c]quinolin-3-one] | > 1000 nM |
| O=c1c2c[nH]c3cc(N4CCC(O)CC4)c(F)cc3c-2nn1-c1ccccc1 [28k, 8-Fluoro-7-(4-hydroxypiperidin-1-yl)-2-phenyl-2,5-dihydro-pyrazolo[4,3-c]quinolin-3-one] | < 1000 nM |
